Assay results: patent publication US7759345B2, “Antitumoral derivatives of ET-743” (priority 2001, dated 2010)

Tests used:
IGROV-1 = test: Inhibition of cells growth by colorimetric assay (SRB), IGROV-1; assay type: cell-based
Procedure, shortened: (§1)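 Compound in DMSO/EtOH/PBS vehicle was applied at 10 to 10^−8 μg/ml to attached cells (5×10^3/well, 18 h) for 48 h. Cells were then fixed with cold TCA and stained with 0.4% SRB in 1% acetic acid.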

HT-29 = test: Inhibition of cells growth by colorimetric assay (SRB), HT-29; assay type: cell-based
Procedure, shortened: as §1

IGROV-ET = test: Inhibition of cells growth by colorimetric assay (SRB), IGROV-ET; assay type: cell-based
Procedure, shortened: as §1

SK-MEL-28 = test: Inhibition of cells growth by colorimetric assay (SRB), SK-MEL-28; assay type: cell-based
Procedure, shortened: as §1

LoVo = test: Inhibition of cells growth by colorimetric assay (SRB), LoVo; assay type: cell-based
Procedure, shortened: as §1

SK-OV-3 = test: Inhibition of cells growth by colorimetric assay (SRB), SK-OV-3; assay type: cell-based
Procedure, shortened: as §1

A-549 = test: Inhibition of cells growth by colorimetric assay (SRB), A-549; assay type: cell-based
Procedure, shortened: as §1

HMEC1 = test: Inhibition of cells growth by colorimetric assay (SRB), HMEC1; assay type: cell-based
Procedure, shortened: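 Cells in RPMI 1640 with 10% FBS were seeded at 5×10^3 per well, allowed 18 h to attach, then exposed to compound (10 to 10^−8 μg/ml, in DMSO/EtOH/PBS 0.5:0.5:99) for 48 h. After TCA fixation and SRB staining, bound dye was solubilized in Tris and OD read at 490 nm; GI, TGI and LC derived from triplicates.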

LoVo-Dox = test: Inhibition of cells growth by colorimetric assay (SRB), LoVo-Dox; assay type: cell-based
Procedure, shortened: as §1

LNCaP = test: Inhibition of cells growth by colorimetric assay (SRB), LNCaP; assay type: cell-based
Procedure, shortened: as §1

SK-BR-3 = test: Inhibition of cells growth by colorimetric assay (SRB), SK-BR-3; assay type: cell-based
Procedure, shortened: as §1

K-562 = test: Inhibition of cells growth by colorimetric assay (SRB), K-562; assay type: cell-based
Procedure, shortened: as §1

PANC-1 = test: Inhibition of cells growth by colorimetric assay (SRB), PANC-1; assay type: cell-based
Procedure, shortened: as §1

DU-145 = test: Inhibition of cells growth by colorimetric assay (SRB), DU-145; assay type: cell-based
Procedure, shortened: as §1

From the text for Heart: (§2) Toxicity was asssessed by the methods reported in Toxicology in Vitro, 15 (2001) 571-577, J. Luber Narod et al.: “Evaluation of the use of in vitro methodolodies as tools for screening new compounds for potential in vivo toxicity”.
From the text for Kidney: as §2
From the text for Liver: as §2
From the text for Myelo: as §2
From the text for Skeletal: as §2

`COc1cc2c(cc1O)CCN[C@]21CS[C@@H]2c3c(OC(=O)CCCCC4SCC5NC(=O)NC54)c(C)c4c(c3[C@H](COC1=O)N1C2[C@H]2c3c(cc(C)c(OC)c3OC(=O)CCCCC3SCC5NC(=O)NC53)C[C@@H]([C@@H]1O)N2C)OCO4` (some centres unmarked) [Compound 172] was tested, and the “Toxicity Data Skeletal” value (Skeletal) was 8.53E-07, the GI50 (IGROV-1; Homo sapiens, IGROV-1, 48 h, SRB assay, 48 hours exposure, read-out: IGROV GI50) was 14.2 nM and the CC50 (IGROV-1; Homo sapiens, IGROV-1, 48 h, read-out: IGROV LC50, SRB assay, 48 hours exposure) was 63.6 nM. The “IGROV TGI” value (IGROV-1; SRB assay, 48 hours exposure) was 3.01E-08, the “Toxicity Data Heart” value (Heart) was 7.52E-07 and the GI50 (HT-29; Homo sapiens, HT-29, 48 h, SRB assay, 48 hours exposure, read-out: HT-29 GI50) was 38.8 nM. The LC50 (concentration for 50% cell killing) (HT-29; Homo sapiens, HT-29, 48 h, read-out: HT-29 LC50, SRB assay, 48 hours exposure) was 8530 nM, the “HT-29 TGI” value (HT-29; SRB assay, 48 hours exposure) was 1.43E-07 and the GI50 (IGROV-ET; Homo sapiens, 48 h, SRB assay, 48 hours exposure, read-out: IGROV-ET GI50) was 165 nM. The CC50 (IGROV-ET; Homo sapiens, 48 h, read-out: IGROV-ET LC50, SRB assay, 48 hours exposure) was 853 nM, the “IGROV-ET TGI” value (IGROV-ET; SRB assay, 48 hours exposure) was 4.18E-07 and the GI50 (SK-MEL-28; Homo sapiens, SK-MEL-28, 48 h, SRB assay, 48 hours exposure, read-out: MEL-28 GI50) was 1.31 nM. For the same molecule, the CC50 (SK-MEL-28; Homo sapiens, SK-MEL-28, 48 h, read-out: MEL-28 LC50, SRB assay, 48 hours exposure) was 7.97 nM, the “MEL-28 TGI” value (SK-MEL-28; SRB assay, 48 hours exposure) was 3.22E-09 and the “Toxicity Data Myelo” value (Myelo) was 3.81E-07. For the same molecule, the GI50 (LoVo; Homo sapiens, LoVo, 48 h, SRB assay, 48 hours exposure, read-out: LOVO GI50) was 226 nM, the LC50 (concentration for 50% cell killing) (LoVo; Homo sapiens, LoVo, 48 h, read-out: LOVO LC50, SRB assay, 48 hours exposure) was 853 nM and the “LOVO TGI” value (LoVo; SRB assay, 48 hours exposure) was 4.61E-07. The GI50 (SK-OV-3; Homo sapiens, SK-OV-3, 48 h, SRB assay, 48 hours exposure, read-out: SK-OV3 GI50) was 219 nM, the LC50 (SK-OV-3; Homo sapiens, SK-OV-3, 48 h, read-out: SK-OV3 LC50, SRB assay, 48 hours exposure) was 853 nM and the “SK-OV3 TGI” value (SK-OV-3; SRB assay, 48 hours exposure) was 5.09E-07. The GI50 (A-549; Homo sapiens, A549, 48 h, SRB assay, 48 hours exposure, read-out: A-549 GI50) was 241 nM, the LC50 (concentration for 50% cell killing) (A-549; Homo sapiens, A549, 48 h, read-out: A-549 LC50, SRB assay, 48 hours exposure) was 853 nM and the “A-549 TGI” value (A-549; SRB assay, 48 hours exposure) was 4.59E-07. The GI50 (HMEC1; Homo sapiens, HMEC-1, 48 h, SRB assay, 48 hours exposure, read-out: HMEC-1 GI50) was 432 nM, the LC50 (HMEC1; Homo sapiens, HMEC-1, 48 h, read-out: HMEC-1 LC50, SRB assay, 48 hours exposure) was 8530 nM and the “HMEC-1 TGI” value (HMEC1; SRB assay, 48 hours exposure) was 8.53E-06. The “Toxicity Data Liver” value (Liver) was 2.47E-07, the GI50 (LoVo-Dox; Homo sapiens, 48 h, SRB assay, 48 hours exposure, read-out: LOVO-DOX GI50) was 2880 nM and the CC50 (LoVo-Dox; Homo sapiens, 48 h, read-out: LOVO-DOX LC50, SRB assay, 48 hours exposure) was 8530 nM. The “LOVO-DOX TGI” value (LoVo-Dox; SRB assay, 48 hours exposure) was 7.23E-06, the GI50 (LNCaP; Homo sapiens, LNCaP, 48 h, read-out: LNCAP GI50, SRB assay, 48 hours exposure) was 27.7 nM and the CC50 (LNCaP; Homo sapiens, LNCaP, 48 h, read-out: LNCAP LC50, SRB assay, 48 hours exposure) was 66.8 nM. For the same molecule, the “LNCAP TGI” value (LNCaP; SRB assay, 48 hours exposure) was 4.31E-08, the “Toxicity Data Kidney” value (Kidney) was 7.93E-07 and the GI50 (SK-BR-3; Homo sapiens, SK-BR-3, 48 h, SRB assay, 48 hours exposure, read-out: SK-BR3 GI50) was 50.2 nM. For the same molecule, the CC50 (SK-BR-3; Homo sapiens, SK-BR-3, 48 h, read-out: SK-BR3 LC50, SRB assay, 48 hours exposure) was 785 nM, the “SK-BR3 TGI” value (SK-BR-3; SRB assay, 48 hours exposure) was 2.00E-07 and the GI50 (K-562; Homo sapiens, K562, 48 h, SRB assay, 48 hours exposure, read-out: K-562 GI50) was 6.03 nM. For the same molecule, the LC50 (50% cell killing) (K-562; Homo sapiens, K562, 48 h, read-out: K-562 LC50, SRB assay, 48 hours exposure) was 35.3 nM, the “K-562 TGI” value (K-562; SRB assay, 48 hours exposure) was 9.98E-09 and the GI50 (PANC-1; Homo sapiens, PANC-1, 48 h, SRB assay, 48 hours exposure, read-out: PANC-1 GI50) was 326 nM. The LC50 (concentration for 50% net cell kill) (PANC-1; Homo sapiens, PANC-1, 48 h, read-out: PANC-1 LC50, SRB assay, 48 hours exposure) was 8530 nM, the “PANC-1 TGI” value (PANC-1; SRB assay, 48 hours exposure) was 8.34E-07 and the GI50 (DU-145; Homo sapiens, DU-145, 48 h, SRB assay, 48 hours exposure, read-out: DU-145 GI50) was 37.9 nM. For the same molecule, the CC50 (DU-145; Homo sapiens, DU-145, 48 h, read-out: DU-145 LC50, SRB assay, 48 hours exposure) was 8530 nM and the “DU-145 TGI” value (DU-145; SRB assay, 48 hours exposure) was 8.31E-08.
